Measured values as given in ChEMBL document CHEMBL4665624, “Synthesis of 5-(4-(1H-phenanthro[9,10-d]imidazol-2-yl)benzylidene)thiazolidine-2,4-dione as promising DNA and serum albumin-binding agents and evaluation of antitumor activity” (Eur J Med Chem, 2019).
Active and inactive are the calls of the source. The rule behind the calls is not given here.

How the values were obtained:
[1] = test system: M14; assay: Antitumor activity against human M14 cells assessed as cell growth inhibition at 10 uM incubated for 48 hrs by sulforhodamine B assay; type: functional; conditions: read-out: GI
[2] = test system: SF-268; assay: Antitumor activity against human SF268 cells assessed as cell growth inhibition at 10 uM incubated for 48 hrs by sulforhodamine B assay; type: functional; conditions: read-out: GI
[3] = test system: SF-295; assay: Antitumor activity against human SF295 cells assessed as cell growth inhibition at 10 uM incubated for 48 hrs by sulforhodamine B assay; type: functional; conditions: read-out: GI
[4] = test system: KM12; assay: Antitumor activity against human KM12 cells assessed as cell growth inhibition at 10 uM incubated for 48 hrs by sulforhodamine B assay; type: functional; conditions: read-out: GI
[5] = test system: NCI-H460; assay: Antitumor activity against human NCI-H460 assessed as cell growth inhibition at 10 uM incubated for 48 hrs by sulforhodamine B assay; type: functional; conditions: read-out: GI
[6] = molecular target: T1, Albumin (Homo sapiens, UniProt P02768); assay: Binding affinity to human serum albumin assessed as Stern-Volmer quenching constant by fluorescence emission spectroscopy; type: ADME, cell-free
[7] = test system: DNA; assay: Binding affinity to human DNA in blood assessed as quenching constant by fluorescence emission spectrum analysis; type: tissue-based
[8] = test system: Calf thymus DNA; assay: Binding affinity to calf thymus DNA assessed as binding constant by UV-Vis absorption spectrophotometric method based Benesi-Hildebrand equation analysis; type: nucleic-acid assay; conditions: Bos taurus
[9] = test system: A549; assay: Cytotoxicity against human A549/ATCC assessed as reduction in cell viability at 100 uM after 48 hrs by MTT assay; type: functional
[10] = molecular target: T2, Albumin (Bos taurus, UniProt P02769); assay: Binding affinity to bovine serum albumin assessed as Stern-Volmer quenching constant at 318K by fluorescence emission spectrum analysis; type: ADME, cell-free; conditions: cattle
[11] = molecular target: T1, Albumin; assay: Binding affinity to human serum albumin assessed as binding constant by UV-Vis absorption spectroscopy; type: ADME, cell-free
[12] = molecular target: T2, Albumin; assay: Binding affinity to bovine serum albumin assessed as increase in absorption intensity at 280 nm at 0-10 uM by UV-vis absorption spectral titration analysis; type: ADME, cell-free; conditions: cattle
[13] = test system: SR; assay: Antitumor activity against human SR cells assessed as cell growth inhibition at 10 uM incubated for 48 hrs by sulforhodamine B assay; type: functional; conditions: read-out: GI
[14] = test system: DNA; assay: Binding affinity to human DNA in blood assessed as DNA intercalation by measuring hypochromic shift at 398 nm at 20 uM by UV-Vis spectral titration analysis; type: tissue-based
[15] = test system: A498; assay: Antitumor activity against human A498 cells assessed as cell growth inhibition at 10 uM incubated for 48 hrs by sulforhodamine B assay; type: functional; conditions: read-out: GI
[16] = molecular target: T2, Albumin; assay: Binding affinity to bovine serum albumin assessed as spontaneous interaction by measuring change in gibbs free energy at 298K by thermodynamic based analysis; type: ADME, cell-free; conditions: cattle
[17] = test system: A549; assay: Cytotoxicity against human A549/ATCC assessed as reduction in cell viability at 1 uM after 48 hrs by MTT assay; type: functional
[18] = test system: HL-60(TB); assay: Antitumor activity against human HL-60(TB) cells assessed as cell growth inhibition at 10 uM incubated for 48 hrs by sulforhodamine B assay; type: functional; conditions: read-out: GI
[19] = test system: Calf thymus DNA; assay: Binding affinity to calf thymus DNA assessed as DNA intercalation by measuring decrease in intensity of CD band at 250 nm at 1 uM by CD spectroscopy; type: nucleic-acid assay; conditions: Bos taurus
[20] = test system: DNA; assay: Binding affinity to human DNA in blood assessed as DNA intercalation by measuring increase in fluorescence emission intensity at 498 nm at 20 uM by fluorescence emission spectral analysis; type: tissue-based
[21] = test system: HCC 2998; assay: Antitumor activity against human HCC2998 cells assessed as cell growth inhibition at 10 uM incubated for 48 hrs by sulforhodamine B assay; type: functional; conditions: read-out: GI
[22] = test system: A549; assay: Cytotoxicity against human A549/ATCC assessed as reduction in cell viability after 48 hrs by MTT assay; type: functional, cell-based; conditions: A549, 48 h
[23] = molecular target: T2, Albumin; assay: Binding affinity to bovine serum albumin assessed as Stern-Volmer quenching constant at 308K by fluorescence emission spectrum analysis; type: ADME, cell-free; conditions: cattle
[24] = molecular target: T2, Albumin; assay: Binding affinity to bovine serum albumin assessed as formation of new absorption band at 400 nm at 0-10 uM by UV-vis absorption spectral titration analysis; type: ADME, cell-free; conditions: cattle
[25] = molecular target: T2, Albumin; assay: Binding affinity to bovine serum albumin assessed as binding constant at 308K by fluorescence emission spectrum analysis; type: ADME, cell-free; conditions: cattle
[26] = test system: BT-549; assay: Antitumor activity against human BT-549 cells assessed as cell growth inhibition at 10 uM incubated for 48 hrs by sulforhodamine B assay; type: functional; conditions: read-out: GI
[27] = test system: OVCAR-3; assay: Antitumor activity against human OVCAR-3 cells assessed as cell growth inhibition at 10 uM incubated for 48 hrs by sulforhodamine B assay; type: functional; conditions: read-out: GI
[28] = test system: PC-3; assay: Antitumor activity against human PC-3 cells assessed as cell growth inhibition at 10 uM incubated for 48 hrs by sulforhodamine B assay; type: functional; conditions: read-out: GI
[29] = test system: NCI-H522; assay: Antitumor activity against human NCI-H522 cells assessed as cell growth inhibition at 10 uM incubated for 48 hrs by sulforhodamine B assay; type: functional; conditions: read-out: GI
[30] = test system: Hs-578T; assay: Antitumor activity against human HS 578T cells assessed as cell growth inhibition at 10 uM incubated for 48 hrs by sulforhodamine B assay; type: functional; conditions: read-out: GI
[31] = test system: RXF 393; assay: Antitumor activity against human RXF 393 cells assessed as cell growth inhibition at 10 uM incubated for 48 hrs by sulforhodamine B assay; type: functional; conditions: read-out: GI
[32] = molecular target: T2, Albumin; assay: Binding affinity to bovine serum albumin assessed as hydrophobic interaction by measuring change in entropy at 298K by thermodynamic based analysis; type: ADME, cell-free; conditions: cattle
[33] = test system: A549; assay: Cytotoxicity against human A549/ATCC assessed as reduction in cell viability at 10 uM after 48 hrs by MTT assay; type: functional
[34] = molecular target: T2, Albumin; assay: Binding affinity to bovine serum albumin assessed as appearance of new fluorescence band at 510 nm at 0-12 uM by fluorescence emission spectrum analysis; type: ADME, cell-free; conditions: cattle
[35] = test system: RPMI-8226; assay: Antitumor activity against human RPMI8226 cells assessed as cell growth inhibition at 10 uM incubated for 48 hrs by sulforhodamine B assay; type: functional; conditions: read-out: GI
[36] = molecular target: T2, Albumin; assay: Binding affinity to bovine serum albumin assessed as Stern-Volmer quenching constant at 298K by fluorescence emission spectrum analysis; type: ADME, cell-free; conditions: cattle
[37] = test system: OVCAR-8; assay: Antitumor activity against human OVCAR-8 cells assessed as cell growth inhibition at 10 uM incubated for 48 hrs by sulforhodamine B assay; type: functional; conditions: read-out: GI
[38] = molecular target: DNA; assay: Binding affinity to human DNA in blood assessed as DNA intercalation by measuring binding constant by UV-Vis spectral titration analysis; type: tissue-based
[39] = test system: ACHN; assay: Antitumor activity against human ACHN cells assessed as cell growth inhibition at 10 uM incubated for 48 hrs by sulforhodamine B assay; type: functional; conditions: read-out: GI
[40] = Ratio of Kb for human DNA in blood to Kb for calf thymus DNA
[41] = test system: Calf thymus DNA; assay: Binding affinity to calf thymus DNA assessed as increase in fluorescence emission intensity at 468 nm at 20 uM by fluorescence emission spectroscopic analysis; type: nucleic-acid assay; conditions: Bos taurus
[42] = test system: 786-0; assay: Antitumor activity against human 786-0 cells assessed as cell growth inhibition at 10 uM incubated for 48 hrs by sulforhodamine B assay; type: functional; conditions: read-out: GI
[43] = molecular target: T2, Albumin; assay: Binding affinity to bovine serum albumin assessed as binding constant at 318K by fluorescence emission spectrum analysis; type: ADME, cell-free; conditions: cattle
[44] = test system: Calf thymus DNA; assay: Binding affinity to calf thymus DNA assessed as Stern-Volmer quenching constant by ethidium bromide competitive displacement assay; type: nucleic-acid assay; conditions: Bos taurus

T2 sequence (P02769 whole entry): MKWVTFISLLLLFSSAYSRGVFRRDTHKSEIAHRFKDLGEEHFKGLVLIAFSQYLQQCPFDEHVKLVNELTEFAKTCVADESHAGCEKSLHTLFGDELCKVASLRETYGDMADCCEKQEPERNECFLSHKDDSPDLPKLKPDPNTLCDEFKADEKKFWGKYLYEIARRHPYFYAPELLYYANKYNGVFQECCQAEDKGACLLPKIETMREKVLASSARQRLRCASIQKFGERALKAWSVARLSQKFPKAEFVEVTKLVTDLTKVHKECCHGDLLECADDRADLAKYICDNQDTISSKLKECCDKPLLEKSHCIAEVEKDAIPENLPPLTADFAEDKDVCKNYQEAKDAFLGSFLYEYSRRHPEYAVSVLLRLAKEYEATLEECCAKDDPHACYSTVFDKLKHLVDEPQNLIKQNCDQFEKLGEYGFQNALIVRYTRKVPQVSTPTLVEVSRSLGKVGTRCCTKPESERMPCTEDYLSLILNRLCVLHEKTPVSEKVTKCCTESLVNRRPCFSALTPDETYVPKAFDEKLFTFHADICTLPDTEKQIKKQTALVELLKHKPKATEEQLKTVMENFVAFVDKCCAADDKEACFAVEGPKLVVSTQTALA
T1 sequence (P02768 whole entry): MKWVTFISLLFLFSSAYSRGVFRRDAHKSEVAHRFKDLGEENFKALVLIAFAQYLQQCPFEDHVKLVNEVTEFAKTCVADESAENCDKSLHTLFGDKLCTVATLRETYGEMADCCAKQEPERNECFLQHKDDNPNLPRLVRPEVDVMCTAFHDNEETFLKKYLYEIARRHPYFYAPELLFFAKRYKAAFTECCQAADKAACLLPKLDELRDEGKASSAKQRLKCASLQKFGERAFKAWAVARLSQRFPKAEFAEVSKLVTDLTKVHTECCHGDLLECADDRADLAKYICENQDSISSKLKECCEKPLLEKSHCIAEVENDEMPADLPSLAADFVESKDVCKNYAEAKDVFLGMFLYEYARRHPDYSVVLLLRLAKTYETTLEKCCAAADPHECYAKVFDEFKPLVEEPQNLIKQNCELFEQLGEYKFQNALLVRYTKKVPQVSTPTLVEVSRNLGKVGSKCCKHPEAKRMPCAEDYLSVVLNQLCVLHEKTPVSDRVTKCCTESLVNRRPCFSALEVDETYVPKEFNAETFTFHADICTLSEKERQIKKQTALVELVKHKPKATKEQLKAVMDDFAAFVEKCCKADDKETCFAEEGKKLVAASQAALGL

Compound O=C1NC(=O)/C(=C/c2ccc(-c3nc4c5ccccc5c5ccccc5c4[nH]3)cc2)S1 has an inhibition of growth at 10 µM [1] of 47.9%, an inhibition of growth at 10 µM [2] of 12.3% and an inhibition of growth at 10 µM [3] of 16.3%. For the same compound, the inhibition of growth at 10 µM [4] was 43.9%, the inhibition of growth at 10 µM [5] was 19.7% and the KSV [6] was 3.01 10^6/M. For the same compound, the Kq [7] was 3.46 10^11/M/s, the Kb [8] was 2.95 10^4/M and the Activity [9] was 90%. The KSV [10] was 3.51 10^5/M, the Kb [11] was 9.35 10^4/M and the Activity [12] was “Active”. The inhibition of growth at 10 µM [13] was 79.2%, the Activity [14] was “Active” and the inhibition of growth at 10 µM [15] was 93%. For the same compound, the deltaG [16] was -9 kcal/mol, the Activity [17] was 75% and the inhibition of growth at 10 µM [18] was 57.7%. For the same compound, the Activity [19] was “Active”, the Activity [20] was “Active” and the inhibition of growth at 10 µM [21] was under 10%. The IC50 [22] was 1.7 µM, the KSV [23] was 8.15 10^5/M and the Activity [24] was “Active”. For the same compound, the Kb [25] was 3.56 10^6/M, the inhibition of growth at 10 µM [26] was 63.7% and the inhibition of growth at 10 µM [27] was 21.3%. It also gave an inhibition of growth at 10 µM [28] of 51.9%, an inhibition of growth at 10 µM [29] of 47.6% and an inhibition of growth at 10 µM [30] of 17.6%. It also gave an inhibition of growth at 10 µM [31] of 19.1%, a deltaS [32] of 20.43 cal/mol.K and an Activity [33] of 78%. For the same compound, the Activity [34] was “Active”, the inhibition of growth at 10 µM [35] was 66.1% and the KSV [36] was 8.42 10^5/M. For the same compound, the inhibition of growth at 10 µM [37] was 21.7%, the Kb [38] was 5.24 10^4/M and the inhibition of growth at 10 µM [39] was 33.4%. For the same compound, the Ratio [40] was 2, the Activity [41] was “Active” and the inhibition of growth at 10 µM [42] was 48%. The Kb [43] was 2.97 10^6/M and the KSV [44] was 6.53 10^4/M.
